In this test the target is T1, YsxC (Bacillus subtilis, UniProt P38424).
T1 construct: gene engB; full-length YsxC, 22 kDa, N-terminal His6 tag (pET15b-ysxC) cleaved by thrombin, expressed in E. coli BL21(DE3)
Nature of the test: cryo-EM structure of the complex on the […].5S(YsxC) particle. Type of test: binding. The settings on record: 2 mM GMPPNP, 15 mM MgCl2, 50 mM NH4Cl, pH 7.5, 37 °C; nucleotide site; non-hydrolyzable GTP analogue.

Molecules are shown by their SMILES.

T1 sequence (P38424 whole entry): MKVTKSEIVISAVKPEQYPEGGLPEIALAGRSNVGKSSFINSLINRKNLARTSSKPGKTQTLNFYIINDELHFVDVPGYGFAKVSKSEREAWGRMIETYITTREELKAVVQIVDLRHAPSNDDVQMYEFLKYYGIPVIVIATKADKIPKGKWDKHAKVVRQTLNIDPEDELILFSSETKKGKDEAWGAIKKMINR

With `Nc1nc2c(ncn2[C@@H]2O[C@H](COP(=O)(O)OP(=O)(O)NP(=O)(O)O)[C@@H](O)[C@H]2O)c(=O)[nH]1` [GMPPNP], the “cryo-EM structure of the complex on the 44.5S(YsxC) particle” value was “the density corresponding to the GMPPNP nucleotide (colored in blue), are indicated”.

(Values after PMC12560758, “YsxC is a placeholder for ribosomal protein uL2 during 50S ribosomal subunit assembly” (Nucleic Acids Research, 2025).)
